For assay [1], the target named is T1, FAAH (Homo sapiens, UniProt O00519).
T1 sequence (O00519 1-579): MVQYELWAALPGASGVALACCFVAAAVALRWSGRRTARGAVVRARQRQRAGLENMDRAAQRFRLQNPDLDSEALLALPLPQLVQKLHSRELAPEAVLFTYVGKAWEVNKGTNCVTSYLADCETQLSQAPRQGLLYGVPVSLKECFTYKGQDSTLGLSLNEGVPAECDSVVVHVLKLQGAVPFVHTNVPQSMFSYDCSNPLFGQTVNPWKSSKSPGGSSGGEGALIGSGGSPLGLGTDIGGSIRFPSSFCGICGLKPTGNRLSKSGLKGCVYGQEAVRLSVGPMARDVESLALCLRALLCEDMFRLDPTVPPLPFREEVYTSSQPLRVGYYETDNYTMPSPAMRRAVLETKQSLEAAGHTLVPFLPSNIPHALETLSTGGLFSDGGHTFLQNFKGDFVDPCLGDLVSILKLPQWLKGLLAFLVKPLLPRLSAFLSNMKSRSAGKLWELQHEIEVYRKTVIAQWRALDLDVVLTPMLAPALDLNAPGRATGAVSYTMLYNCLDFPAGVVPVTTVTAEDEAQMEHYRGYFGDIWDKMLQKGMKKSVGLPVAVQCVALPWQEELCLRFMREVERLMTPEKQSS
Briefly: In vitro competitive activity-based protein profiling, FAAH, human. The settings on record: for inhibition at 1 µM: read-out: FAAH % inh. 1 μM (human).

Assay [2] has as its target T2, MAGL (Mus musculus, UniProt O35678).
T2 sequence (O35678 1-303): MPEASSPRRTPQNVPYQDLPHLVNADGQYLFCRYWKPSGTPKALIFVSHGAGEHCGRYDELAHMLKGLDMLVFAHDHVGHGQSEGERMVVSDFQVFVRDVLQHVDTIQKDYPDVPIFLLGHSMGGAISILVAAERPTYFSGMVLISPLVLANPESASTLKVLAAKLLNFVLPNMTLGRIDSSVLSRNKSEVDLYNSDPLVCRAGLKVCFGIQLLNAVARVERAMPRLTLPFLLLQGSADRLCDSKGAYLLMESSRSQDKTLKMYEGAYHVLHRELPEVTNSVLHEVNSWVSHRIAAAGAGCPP
Briefly: In vitro competitive activity-based protein profiling, MAGL, mouse. The settings on record: read-out: MAGL % inh. 1 μM (mouse).

Assay [3] addresses T3, MAGL (Homo sapiens, UniProt Q99685).
T3 sequence (Q99685 1-303): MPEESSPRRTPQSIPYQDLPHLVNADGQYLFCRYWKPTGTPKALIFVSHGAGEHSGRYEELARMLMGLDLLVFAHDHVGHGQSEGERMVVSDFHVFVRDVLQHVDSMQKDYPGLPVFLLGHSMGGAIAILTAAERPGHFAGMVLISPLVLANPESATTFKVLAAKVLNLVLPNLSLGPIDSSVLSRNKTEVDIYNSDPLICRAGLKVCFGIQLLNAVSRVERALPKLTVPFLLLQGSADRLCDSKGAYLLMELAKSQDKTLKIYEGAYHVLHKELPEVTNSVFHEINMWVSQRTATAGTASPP
As to the kind of experiment: In vitro competitive activity-based protein profiling, MAGL, human. The settings on record: read-out: MAGL % inh. 1 μM (human).

Assay [4] deals with T4, FAAH (Mus musculus, UniProt O08914).
T4 sequence (O08914 1-579): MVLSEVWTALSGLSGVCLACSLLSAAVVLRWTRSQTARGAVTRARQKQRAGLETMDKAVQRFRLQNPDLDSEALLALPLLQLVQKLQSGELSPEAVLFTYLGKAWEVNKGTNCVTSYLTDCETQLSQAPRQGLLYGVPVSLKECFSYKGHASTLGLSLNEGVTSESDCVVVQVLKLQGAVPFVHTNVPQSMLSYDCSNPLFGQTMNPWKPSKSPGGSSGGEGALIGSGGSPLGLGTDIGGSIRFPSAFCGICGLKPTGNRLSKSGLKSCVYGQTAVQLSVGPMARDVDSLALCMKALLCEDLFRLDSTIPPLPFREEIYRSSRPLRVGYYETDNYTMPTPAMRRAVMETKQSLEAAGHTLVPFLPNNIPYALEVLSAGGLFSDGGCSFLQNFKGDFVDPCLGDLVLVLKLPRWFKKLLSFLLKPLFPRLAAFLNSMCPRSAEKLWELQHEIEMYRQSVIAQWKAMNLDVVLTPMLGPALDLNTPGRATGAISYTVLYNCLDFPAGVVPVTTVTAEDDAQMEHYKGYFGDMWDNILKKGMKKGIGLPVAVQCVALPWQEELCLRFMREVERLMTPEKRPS
As to the kind of experiment: In vitro competitive activity-based protein profiling, FAAH, mouse. The settings on record: read-out: FAAH % inh. 1 μM (mouse).

Turning to `O=C(O)c1nn(C(=O)N2CCC3(CCN(Cc4ccc(N5CCCC5)cc4C(F)(F)F)C3)CC2)cc1Cl` [Example 138, 4-chloro-1-(2-(4-(pyrrolidin-1-yl)-2-(trifluoromethyl)benzyl)-2,8-diazaspiro[4.5]decane-8-carbonyl)-1H-pyrazole-3-carboxylic acid], the IC50 in assay [1] fell in the range of 100 to 1000 nM. The inhibition at 1 µM in assay [1] is 0 to 25%; in assay [2], over 75%; in assay [3], over 75%; in assay [4], 50 to 75%.
On to `O=C(O)c1ccn(C(=O)N2CCN(Cc3ccc(Cl)cc3)CC2)n1` [Example 1, 1-(4-(4-chlorobenzyl)piperazine-1-carbonyl)-1H-pyrazole-3-carboxylic Acid], for which the inhibition at 10 µM in assay [1] (read-out: FAAH % inh. (human) at 10 uM) is over 75%. Further, the inhibition at 1 µM in assay [2] lay in the range of 50 to 75%; in assay [3] it was 25 to 50%; in assay [4], 0 to 25%.
As for `Cc1ccc(CN2CCN(C(=O)n3ccc(C(=O)O)n3)CC2)c(-c2nnco2)c1` [Example 66, 1-(4-(4-methyl-2-(1,3,4-oxadiazol-2-yl)benzyl)piperazine-1-carbonyl)-1H-pyrazole-3-carboxylic acid], the inhibition at 1 µM is 0 to 25% in assay [1], over 75% in assay [2], over 75% in assay [3] and 0 to 25% in assay [4].
As to `O=C(O)c1ccn(C(=O)N2CCC3(CCN(Cc4ccc(N5CCCC5)cc4C(F)(F)F)C3)CC2)n1` [Example 191, 1-(2-(4-(pyrrolidin-1-yl)-2-(trifluoromethyl)benzyl)-2,8-diazaspiro[4.5]decane-8-carbonyl)-1H-pyrazole-3-carboxylic acid], the inhibition at 1 µM in assay [1] is 0 to 25%; in assay [2] it was over 75%; in assay [3], over 75%; in assay [4], 0 to 25%.
`O=C(O)c1ccn(C(=O)N2C[C@H]3C[C@H](OCc4ccccc4Cl)C[C@H]3C2)n1` [Example 15, 1-(trans-5-((2-Chlorobenzyl)oxy)octahydrocyclopenta[c]pyrrole-2-carbonyl)-1H-pyrazole-3-carboxylic Acid]: the inhibition at 1 µM in assay [1] was over 75%; in assay [4] it was 25 to 50%.
The like results for `C[C@@H]1CC[C@H](C)N1c1cc(C(F)(F)F)ccc1CN(C)C1(C)CCN(C(=O)n2ccc(C(=O)O)n2)CC1` [Example 160, 1-(4-((2-((2R,5S)-2,5-dimethylpyrrolidin-1-yl)-4-(trifluoromethyl)benzyl)(methyl)amino)-4-methylpiperidine-1-carbonyl)-1H-pyrazole-3-carboxylic acid] were, in that order, 0 to 25% and 0 to 25%.
Consider `NC(=O)c1ccn(C(=O)N2CCN(Cc3cccc(Oc4ccccc4)c3)CC2)n1` [Example 198, 1-(4-(3-phenoxybenzyl)pi-perazine-1-carbonyl)-1H-pyrazole-3-carboxamide], for which the inhibition at 1 µM in assay [2] and in assay [4] was over 75% in each case.
On to `NC(=O)c1ccn(C(=O)N2CC3CN(Cc4cc(Cl)ccc4Cl)CC3C2)n1` (stereo not drawn) [Example 202, 1-(5-(2,5-dichlorobenzyl)octa-hydropyrrolo[3,4-c]pyrrole-2-carbonyl)-1H-pyrazole-3-carboxamide], for which the inhibition at 1 µM in assay [2] and in assay [4] was over 75% in each case.
`CN(Cc1ccccc1Cl)[C@@H]1C[C@@H]2CN(C(=O)n3ccc(C(N)=O)n3)C[C@@H]2C1` [Example 206]: the inhibition at 1 µM in assay [2] and in assay [4] was over 75% in each case.
For `O=C(O)c1ccn(C(=O)N2CCC(Oc3cccc(Cl)c3N3CCCC3)CC2)n1` [Example 13, 1-(4-(3-Chloro-2-(pyrrolidin-1-yl)phenoxy)piperidine-1-carbonyl)-1H-pyrazole-3-carboxylic Acid], the inhibition at 1 µM in assay [2] is over 75%; in assay [4] it was 0 to 25%.
As for `CN(Cc1ccccc1C(F)(F)F)[C@@H]1C[C@@H]2CN(C(=O)n3ccc(C(N)=O)n3)C[C@@H]2C1` [Example 204, 1-(cis-5-(methyl(2-(trifluoromethyl)benzyl)amino)octa-hydrocyclopenta[c]pyrrole-2-carbonyl)-1H-pyrazole-3-carboxamide], the inhibition at 1 µM in assay [2] and in assay [4] was over 75% each time.
On to `NC(=O)c1ccn(C(=O)N2CC3CN(Cc4ccc(N5CCOCC5)cc4C(F)(F)F)CC3C2)n1` (stereo not drawn) [Example 17, 1-(5-(4-Morpholino-2-(trifluoromethyl)benzyl)octahydropyrrolo[3,4-c]pyrrole-2-carbonyl)-1H-pyrazole-3-carboxamide], for which the inhibition at 1 µM in assay [2] and in assay [4] was over 75% each time.
`NC(=O)c1ccn(C(=O)N2CC3CN(Cc4cccc(C(F)(F)F)c4)CC3C2)n1` (stereo not drawn) [Example 208, 1-(5-(3-(trifluoromethyl)benzyl)octahydro-pyrrolo[3,4-c]pyrrole-2-carbonyl)-1H-pyrazole-3-carboxamide]: the inhibition at 1 µM in assay [2] and in assay [4] was over 75% throughout.
Consider `O=C(O)c1ccn(C(=O)N2CC3CN(Cc4ccc(C(F)(F)F)cc4)CC3C2)n1` (stereo not drawn) [Example 96, 1-(5-(4-(trifluoromethyl)benzyl)octahydro-pyrrolo[3,4-c]pyrrole-2-carbonyl)-1H-pyrazole-3-carboxylic acid], for which the inhibition at 1 µM in assay [2] is over 75%; in assay [4], 25 to 50%.
For the molecule `C[C@@H]1CC[C@H](C)N1c1cc(C(F)(F)F)ccc1CN1CCCC12CCN(C(=O)n1ccc(C(=O)O)n1)CC2` [Example 80, 1-(1-(2-((2R,5S)-2,5-dimethylpyrrolidin-1-yl)-4-(trifluoromethyl)benzyl)-1,8-diazaspiro[4.5]decane-8-carbonyl)-1H-pyrazole-3-carboxylic acid], the inhibition at 1 µM in assay [1] and in assay [4] was 0 to 25% throughout.
On to `O=C(O)c1ccn(C(=O)N2CC3CN(Cc4ccc(Cl)cc4)CC3C2)n1` (stereo not drawn) [Example 183, 1-(5-(4-chlorobenzyl)octa-hydropyrrolo[3,4-c]pyrrole-2-carbonyl)-1H-pyrazole-3-carboxylic acid], for which the inhibition at 1 µM in assay [2] and in assay [4] was 25 to 50% each time.
As to `CN(Cc1ccc(C(F)(F)F)cc1)[C@@H]1C[C@@H]2CN(C(=O)n3ccc(C(N)=O)n3)C[C@@H]2C1` [Example 205, 1-(cis-5-(methyl(4-(trifluoromethyl)benzyl)amino)octa-hydrocyclopenta[c]pyrrole-2-carbonyl)-1H-pyrazole-3-carboxamide], the inhibition at 1 µM in assay [2] and in assay [4] was over 75% throughout.
As for `CN(Cc1ccccc1Cl)[C@H]1C[C@@H]2CN(C(=O)n3ccc(C(=O)O)n3)C[C@@H]2C1` [Example 184, 1-(trans-5-((2-chlorobenzyl) (methyl)amino)octa-hydrocyclopenta[c]pyrrole-2-carbonyl)-1H-pyrazole-3-carboxylic], the inhibition at 1 µM lay within 0 to 25% in assay [2] and 25 to 50% in assay [4].

In general, IC50 refers to the concentration needed to halve the response being measured. A lower IC50 goes with greater potency.
